Read-outs that look alike come from different tables or passages of the source. Where a SMILES comes first, the peptide text is derived from it. [ ]: non-standard residue; d: D form. GABA = NCCCC(=O)O
Legend:
[1] = system: P. falciparum 3D7 parasites; experiment: P. falciparum growth inhibition assay, 1-cycle (72 h treatment), SYBR DNA staining (library screen at 2 μg/mL and dose-response); assay type: cell-based, Plasmodium falciparum; conditions: 72 h; for activity at 2 µg/mL: Plasmodium falciparum, 3D7, 72 h
[2] = system: P. falciparum 3D7 parasites; experiment: P. falciparum growth inhibition assay, 2-cycle (120 h treatment), delayed-death screen and dose-response; assay type: cell-based, Plasmodium falciparum; conditions: 120 h; for activity at 2 µg/mL: Plasmodium falciparum, 3D7, 120 h
[3] = system: T. gondii RH strain (RH-Tub-eYFP) tachyzoites; experiment: microbe, parasite or virus in culture; assay type: cell-based, Toxoplasma gondii; conditions: 72 h; for percent parasite growth at 2 µg/mL: Toxoplasma gondii
[4] = P. falciparum, parasite screen 2 μg/mL, % growth, replicate 1
[5] = P. falciparum, parasite screen 2 μg/mL, % growth, replicate 2
[6] = T. gondii, parasite screen 2 μg/mL, % growth, replicate 1
[7] = T. gondii, parasite screen 2 μg/mL, % growth, replicate 2
[8] = library screen at 2 μg/mL, % growth, replicate 1
[9] = library screen at 2 μg/mL, % growth, replicate 2
[10] = P. falciparum, screen at 2 μg/mL, replicate 1
[11] = P. falciparum, screen at 2 μg/mL, replicate 2
[12] = T. gondii, screen at 2 μg/mL, replicate 1
[13] = T. gondii, screen at 2 μg/mL, replicate 2
[14] = P. falciparum, screen at 2 μg/mL, replicate 1, read-out: Pf_72h_%Growth_Rep1
[15] = P. falciparum, screen at 2 μg/mL, replicate 2, read-out: Pf_72h_%Growth_Rep2
[16] = P. falciparum, screen at 2 μg/mL, replicate 1, read-out: Pf_120h_%Growth_Rep1
[17] = P. falciparum, screen at 2 μg/mL, replicate 2, read-out: Pf_120h_%Growth_Rep2
[18] = T. gondii, screen at 2 μg/mL, replicate 1, read-out: Tg_72h_%Growth_Rep1
[19] = T. gondii, screen at 2 μg/mL, replicate 2, read-out: Tg_72h_%Growth_Rep2

**Q.** With CCO[C@@H]1[C@@H](OC)[C@H](C)O[C@@H](O[C@@H]2C[C@H]3CC[C@@H]4[C@@H](C=C5C(=O)[C@H](C)[C@@H](O[C@H]6CC[C@H](N(C)C)[C@@H](C)O6)CCC[C@H](CC)OC(=O)C[C@H]54)[C@@H]3C2)[C@@H]1OC [spinosyn J, 3'-Ethoxy-5,6-dihydro-] as the molecule, how does the Pf_72h_%Growth_Rep1 [1, 4] read?
**A.** 5.68%

**Q.** What about the Pf_72h_%Growth_Rep2 [1, 5] of the same molecule?
**A.** 5.35%

**Q.** And the Pf_120h_%Growth_Rep1 [2, 4]?
**A.** 7.21%

**Q.** And the Pf_120h_%Growth_Rep2 [2, 5]?
**A.** 9.72%

**Q.** And the Tg_72h_%Growth_Rep1 [3, 6]?
**A.** 73.90%

**Q.** What about the Tg_72h_%Growth_Rep2 [3, 7] of the same molecule?
**A.** 86.54%

**Q.** For C=C(C)[C@@H]1CC[C@]2(C(=O)OC)CC[C@]3(C)[C@H](CC[C@@H]4[C@@]5(C)CC[C@H](O)C(C)(C)[C@@H]5CC[C@]43C)[C@@H]12 [Betulinate, Methyl], which Pf_72h_%Growth_Rep1 [1, 8] is on record?
**A.** 96.31%

**Q.** What about the Pf_72h_%Growth_Rep2 [1, 9] of the same molecule?
**A.** 86.01%

**Q.** What about the Pf_120h_%Growth_Rep1 [2, 8] of the same molecule?
**A.** 150.46%

**Q.** What about the Pf_120h_%Growth_Rep2 [2, 9] of the same molecule?
**A.** 92.78%

**Q.** And the Tg_72h_%Growth_Rep1 [3, 8]?
**A.** 84.95%

**Q.** What about the Tg_72h_%Growth_Rep2 [3, 9] of the same molecule?
**A.** 84.36%

**Q.** CO[C@H]1/C=C\C=C(/C)C(=O)Nc2cc(O)cc(c2O)[C@H](OC)[C@@H](C)C[C@H](OC)[C@H](O)[C@@H](C)/C=C(\C)[C@@H]1OC(N)=O [TAN 420C] was tested. Which Pf_72h_%Growth_Rep1 [1, 4] did it give?
**A.** 3.02%

**Q.** And the Pf_72h_%Growth_Rep2 [1, 5]?
**A.** -2.54%

**Q.** What about the Pf_120h_%Growth_Rep1 [2, 4] of the same molecule?
**A.** 31.69%

**Q.** What about the Pf_120h_%Growth_Rep2 [2, 5] of the same molecule?
**A.** 5.24%

**Q.** What about the Tg_72h_%Growth_Rep1 [3, 6] of the same molecule?
**A.** 82.44%

**Q.** What about the Tg_72h_%Growth_Rep2 [3, 7] of the same molecule?
**A.** 97.92%

**Q.** What does the source list for COc1ccc(C[C@H]2NC[C@H](O)[C@H]2O)cc1 [Deacetylanisomycin]?
**A.** Pf_72h_%Growth_Rep1 [1, 10]: 64.17%; Pf_72h_%Growth_Rep2 [1, 11]: 43.98%; Pf_120h_%Growth_Rep1 [2, 10]: 36.01%; Pf_120h_%Growth_Rep2 [2, 11]: 30.23%; Tg_72h_%Growth_Rep1 [3, 12]: 5.55%; Tg_72h_%Growth_Rep2 [3, 13]: 18.56%

**Q.** With CN[C@@H]1C[C@H]2O[C@@](C)([C@@H]1OC)n1c3ccccc3c3c4c(c5c6ccccc6n2c5c31)C(=O)N[C@H]4O [UCN-01] as the molecule, how does the Pf_72h_%Growth_Rep1 [1, 10] read?
**A.** 0.68%

**Q.** And the Pf_72h_%Growth_Rep2 [1, 11]?
**A.** -0.50%

**Q.** And the Pf_120h_%Growth_Rep1 [2, 10]?
**A.** 24.61%

**Q.** What about the Pf_120h_%Growth_Rep2 [2, 11] of the same molecule?
**A.** 12.22%

**Q.** What about the Tg_72h_%Growth_Rep1 [3, 12] of the same molecule?
**A.** 1.44%

**Q.** And the Tg_72h_%Growth_Rep2 [3, 13]?
**A.** 1.53%

**Q.** How did the activity at 2 µg/mL [1, 14] turn out when C/C=C/[C@H]1O[C@@](O)([C@@H](C)[C@H](O)[C@H](C)[C@H]2OC(=O)/C(OC)=C/C(C)=C/[C@@H](C)[C@@H](O)[C@@H](CC)[C@@H](O)[C@H](C)C/C(C)=C/C=C/[C@@H]2OC)C[C@@H](O[C@H]2C[C@@H](O)[C@H](OC(N)=O)[C@@H](C)O2)[C@@H]1C [Concanamycin A] was run?
**A.** 2.64%

**Q.** And the activity at 2 µg/mL [1, 15]?
**A.** 2.16%

**Q.** What about the activity at 2 µg/mL [2, 16] of the same molecule?
**A.** 0.77%

**Q.** And the activity at 2 µg/mL [2, 17]?
**A.** 5.18%

**Q.** What about the percent parasite growth at 2 µg/mL [3, 18] of the same molecule?
**A.** -1.66%

**Q.** What about the percent parasite growth at 2 µg/mL [3, 19] of the same molecule?
**A.** 0.56%

**Q.** Which results are given for COc1c(OC)c(-c2c[nH]c3ccccc23)c(OC)c(OC)c1-c1c[nH]c2ccccc12 [Asterriquinol D dimethylether]?
**A.** Pf_72h_%Growth_Rep1 [1, 8]: 80.59%; Pf_72h_%Growth_Rep2 [1, 9]: 80.67%; Pf_120h_%Growth_Rep1 [2, 8]: 55.71%; Pf_120h_%Growth_Rep2 [2, 9]: 80.70%; Tg_72h_%Growth_Rep1 [3, 8]: 135.53%; Tg_72h_%Growth_Rep2 [3, 9]: 89.90%

**Q.** CC(C)[C@H]1NC(=O)[C@H](Cc2ccccc2)NC(=O)[C@@H](C(C)C)NC(=O)[C@@H](C)NC(=O)CCCNC(=O)[C@@H](Cc2c[nH]c3ccccc23)NC(=O)[C@@H](C)NC1=O [Unguisin A] (cyclo(F[dV][dA][dW][GABA][dA][dV])) was tested. Which Pf_72h_%Growth_Rep1 [1, 10] did it give?
**A.** 89.83%

**Q.** And the Pf_72h_%Growth_Rep2 [1, 11]?
**A.** 117.62%

**Q.** And the Pf_120h_%Growth_Rep1 [2, 10]?
**A.** 110.43%

**Q.** And the Pf_120h_%Growth_Rep2 [2, 11]?
**A.** -17.05%

**Q.** And the Tg_72h_%Growth_Rep1 [3, 12]?
**A.** 121.37%

**Q.** And the Tg_72h_%Growth_Rep2 [3, 13]?
**A.** 69.01%

**Q.** Which results are given for CC(=O)NCCc1c[nH]c2ccccc12 [Acetyltryptamine, N-]?
**A.** Pf_72h_%Growth_Rep1 [1, 8]: 83.66%; Pf_72h_%Growth_Rep2 [1, 9]: 90.45%; Pf_120h_%Growth_Rep1 [2, 8]: 84.03%; Pf_120h_%Growth_Rep2 [2, 9]: 87.17%; Tg_72h_%Growth_Rep1 [3, 8]: 109.38%; Tg_72h_%Growth_Rep2 [3, 9]: 85.68%

**Q.** What does the source list for C/C1=C\[C@@H](C)C/C=C/[C@H]2[C@@H]3O[C@]3(C)[C@@H](C)[C@H]3[C@H](Cc4c[nH]c5ccccc45)NC(=O)[C@]32C(=O)/C=C/C(=O)[C@@H]1O [Chaetoglobosin A]?
**A.** activity at 2 µg/mL [1, 14]: 10.6%; activity at 2 µg/mL [1, 15]: 0.38%; activity at 2 µg/mL [2, 16]: 17.4%; activity at 2 µg/mL [2, 17]: 22.2%; percent parasite growth at 2 µg/mL [3, 18]: 51.1%; percent parasite growth at 2 µg/mL [3, 19]: 65.4%
